# Legend:
# Type in all cases: in vivo
# Design in all cases: key: 0 indicates no effect; 5 indicates complete kill
# Cayratia japonica = experiment: Foliage treatment (Example 8); conditions: Plant No. 13 Cayratia japonica
# Procedure: (§1) Aqueous solutions of Phosalacine (Na salt) at different concentrations were applied at a rate of 1500 liters per hectare to naturally occurring plants or plants which were cultured on plates as shown in the following Table at certain stages of growth. […] One month after the foliage treatment, the inhibition of regrowth of the plants was visually investigated.
# Daucus carota = experiment: Foliage treatment (Example 8); conditions: Plant No. 29 Daucus carota
# Procedure: as §1
# Digitaria adscendens = experiment: Foliage treatment (Example 8); conditions: Plant No. 10 Digitaria adscendens
# Procedure: as §1
# Helianthus tuberosus = experiment: Foliage treatment (Example 8); conditions: Plant No. 12 Helianthus tuberosus
# Procedure: as §1
# Imperata cyrindrica = experiment: Foliage treatment (Example 8); conditions: Plant No. 15 Imperata cyrindrica
# Procedure: as §1
# Oryzae sativa = experiment: Foliage treatment (Example 8); conditions: Plant No. 25 Oryzae sativa
# Procedure: as §1
# Pleioblastus chino = experiment: Foliage treatment (Example 8); conditions: Plant No. 11 Pleioblastus chino
# Procedure: as §1
# Pueraria lobata = experiment: Foliage treatment (Example 8); conditions: Plant No. 16 Pueraria lobata
# Procedure: as §1
# Raphanus sativus = experiment: Foliage treatment (Example 8); conditions: Plant No. 32 Raphanus sativus
# Procedure: as §1
# Rumex obtusifolius = experiment: Foliage treatment (Example 8); conditions: Plant No. 14 Rumex obtusifolius
# Procedure: as §1
# Solanum melongena = experiment: Foliage treatment (Example 8); conditions: Plant No. 31 Solanum melongena
# Procedure: as §1
# Triticum aestivum = experiment: Foliage treatment (Example 8); conditions: Plant No. 26 Triticum aestivum
# Procedure: as §1
# Castanea crenata = experiment: Foliage treatment of woody plants (Example 10); conditions: Plant No. 8 Castanea crenata
# Description: (§2) Aqueous solutions containing Phosalacine (Na salt) at different concentrations and 0.1% of octylphenylpolyoxy ethanol as surfactant were applied at a rate of 1500 liter per hectare to woody plants of about 60-70 cm in height. 7 and 14 days after the foliage treatment, damage to the plants was visually assessed on a scale of from 0 to 5 (cf. Example 7).
# Larix leptolepis = experiment: Foliage treatment of woody plants (Example 10); conditions: Plant No. 23 Larix leptolepis
# Description: as §2
# Picea densiflora = experiment: Foliage treatment of woody plants (Example 10); conditions: Plant No. 22 Picea densiflora
# Description: as §2
compound,measurement,setting,value
"C[C@H](NC(=O)[C@H](C)NC(=O)[C@@H](N)CCP(C)(=O)[O-])C(=O)O.[Na+] [SF, reference compound]","damage to the plants, scale 0 to 5","Cayratia japonica; 0.1%, 7 days",3
same,"damage to the plants, scale 0 to 5","Cayratia japonica; 0.1%, 14 days",4
same,"damage to the plants, scale 0 to 5","Cayratia japonica; 0.2%, 7 days",4
same,"damage to the plants, scale 0 to 5","Cayratia japonica; 0.2%, 14 days",5
same,"damage to the plants, scale 0 to 5","Daucus carota; 0.1%, 7 days",2
same,"damage to the plants, scale 0 to 5","Daucus carota; 0.1%, 14 days",4
same,"damage to the plants, scale 0 to 5","Daucus carota; 0.2%, 7 days",3
same,"damage to the plants, scale 0 to 5","Daucus carota; 0.2%, 14 days",5
same,"damage to the plants, scale 0 to 5","Digitaria adscendens; 0.1%, 7 days",3
same,"damage to the plants, scale 0 to 5","Digitaria adscendens; 0.1%, 14 days",4
same,"damage to the plants, scale 0 to 5","Digitaria adscendens; 0.2%, 7 days",5
same,"damage to the plants, scale 0 to 5","Digitaria adscendens; 0.2%, 14 days",5
same,"damage to the plants, scale 0 to 5","Helianthus tuberosus; 0.1%, 7 days",3
same,"damage to the plants, scale 0 to 5","Helianthus tuberosus; 0.1%, 14 days",4
same,"damage to the plants, scale 0 to 5","Helianthus tuberosus; 0.2%, 7 days",4
same,"damage to the plants, scale 0 to 5","Helianthus tuberosus; 0.2%, 14 days",5
same,"damage to the plants, scale 0 to 5","Imperata cyrindrica; 0.1%, 7 days",3
same,"damage to the plants, scale 0 to 5","Imperata cyrindrica; 0.1%, 14 days",4
same,"damage to the plants, scale 0 to 5","Imperata cyrindrica; 0.2%, 7 days",4
same,"damage to the plants, scale 0 to 5","Imperata cyrindrica; 0.2%, 14 days",5
same,"damage to the plants, scale 0 to 5","Oryzae sativa; 0.1%, 7 days",3
same,"damage to the plants, scale 0 to 5","Oryzae sativa; 0.1%, 14 days",4
same,"damage to the plants, scale 0 to 5","Oryzae sativa; 0.2%, 7 days",4
same,"damage to the plants, scale 0 to 5","Oryzae sativa; 0.2%, 14 days",5
same,"damage to the plants, scale 0 to 5","Pleioblastus chino; 0.1%, 7 days",3
same,"damage to the plants, scale 0 to 5","Pleioblastus chino; 0.1%, 14 days",4
same,"damage to the plants, scale 0 to 5","Pleioblastus chino; 0.2%, 7 days",4
same,"damage to the plants, scale 0 to 5","Pleioblastus chino; 0.2%, 14 days",5
same,"damage to the plants, scale 0 to 5","Pueraria lobata; 0.1%, 7 days",3
same,"damage to the plants, scale 0 to 5","Pueraria lobata; 0.1%, 14 days",4
same,"damage to the plants, scale 0 to 5","Pueraria lobata; 0.2%, 7 days",4
same,"damage to the plants, scale 0 to 5","Pueraria lobata; 0.2%, 14 days",5
same,"damage to the plants, scale 0 to 5","Raphanus sativus; 0.1%, 7 days",3
same,"damage to the plants, scale 0 to 5","Raphanus sativus; 0.1%, 14 days",4
same,"damage to the plants, scale 0 to 5","Raphanus sativus; 0.2%, 7 days",4
same,"damage to the plants, scale 0 to 5","Raphanus sativus; 0.2%, 14 days",5
same,"damage to the plants, scale 0 to 5","Rumex obtusifolius; 0.1%, 7 days",3
same,"damage to the plants, scale 0 to 5","Rumex obtusifolius; 0.1%, 14 days",4
same,"damage to the plants, scale 0 to 5","Rumex obtusifolius; 0.2%, 7 days",4
same,"damage to the plants, scale 0 to 5","Rumex obtusifolius; 0.2%, 14 days",5
same,"damage to the plants, scale 0 to 5","Solanum melongena; 0.1%, 7 days",3
same,"damage to the plants, scale 0 to 5","Solanum melongena; 0.1%, 14 days",4
same,"damage to the plants, scale 0 to 5","Solanum melongena; 0.2%, 7 days",5
same,"damage to the plants, scale 0 to 5","Solanum melongena; 0.2%, 14 days",5
same,"damage to the plants, scale 0 to 5","Triticum aestivum; 0.1%, 7 days",3
same,"damage to the plants, scale 0 to 5","Triticum aestivum; 0.1%, 14 days",4
same,"damage to the plants, scale 0 to 5","Triticum aestivum; 0.2%, 7 days",4
same,"damage to the plants, scale 0 to 5","Triticum aestivum; 0.2%, 14 days",5
same,"damage to the plants, scale 0 to 5","Castanea crenata; 0.125%, 7 days",5
same,"damage to the plants, scale 0 to 5","Castanea crenata; 0.125%, 14 days",5
same,"damage to the plants, scale 0 to 5","Castanea crenata; 0.25%, 7 days",5
same,"damage to the plants, scale 0 to 5","Castanea crenata; 0.25%, 14 days",5
same,"damage to the plants, scale 0 to 5","Castanea crenata; 0.5%, 7 days",5
same,"damage to the plants, scale 0 to 5","Castanea crenata; 0.5%, 14 days",5
same,"damage to the plants, scale 0 to 5","Larix leptolepis; 0.125%, 7 days",4
same,"damage to the plants, scale 0 to 5","Larix leptolepis; 0.125%, 14 days",5
same,"damage to the plants, scale 0 to 5","Larix leptolepis; 0.25%, 7 days",4
same,"damage to the plants, scale 0 to 5","Larix leptolepis; 0.25%, 14 days",5
same,"damage to the plants, scale 0 to 5","Larix leptolepis; 0.5%, 7 days",4
same,"damage to the plants, scale 0 to 5","Larix leptolepis; 0.5%, 14 days",5
same,"damage to the plants, scale 0 to 5","Picea densiflora; 0.125%, 7 days",4
same,"damage to the plants, scale 0 to 5","Picea densiflora; 0.125%, 14 days",5
same,"damage to the plants, scale 0 to 5","Picea densiflora; 0.25%, 7 days",4
same,"damage to the plants, scale 0 to 5","Picea densiflora; 0.25%, 14 days",5
same,"damage to the plants, scale 0 to 5","Picea densiflora; 0.5%, 7 days",4
same,"damage to the plants, scale 0 to 5","Picea densiflora; 0.5%, 14 days",5

# — US4613355A, “Antibiotic having herbicidal activity” (Satoshi Omura, priority 1983, dated 1986)
